Measurements published in patent US10202361B2, “Pyridazinones as herbicides” (E I DU PONT DE NEMOURS AND COMPANY, priority 2014, dated 2019).

Tests used:
Experiment in all cases: Test E pre-/postemergence greenhouse herbicide test
Format in all cases: in vivo
Conditions in all cases: Preemergence, scale 0 to 100
[1] = tested on: field bindweed (Convolvulus arvensis)
In short: (§1)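 Preemergence: seeds sown in silt loam soil and sprayed with test chemicals in a non-phytotoxic solvent mixture containing surfactant. Postemergence: plants at 1- to 4-leaf stage (2 to 18 cm) in peat/vermiculite medium treated with the same formulation. Visual rating after 14 to 21 d in greenhouse, 0 (no effect) to 100 (complete control) versus controls.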

[2] = tested on: pigweed, palmer (palmer pigweed, Amaranthus palmeri)
In short: as §1

[3] = tested on: sandbur (southern sandbur, Cenchrus echinatus)
In short: as §1

[4] = tested on: arrowleaf sida (Sida rhombifolia)
In short: as §1

[5] = tested on: johnsongrass (Sorghum halepense)
In short: as §1

[6] = tested on: nightshade (eastern black nightshade, Solanum ptycanthum)
In short: as §1

[7] = tested on: waterhemp (common waterhemp, Amaranthus rudis)
In short: as §1

[8] = tested on: barnyardgrass (Echinochloa crus-galli)
In short: as §1

[9] = tested on: crabgrass, Brazil (Brazilian crabgrass, Digitaria horizontalis)
In short: as §1

[10] = tested on: morningglory (Ipomoea coccinea)
In short: as §1

[11] = tested on: ryegrass, Italian (Italian ryegrass, Lolium multiflorum)
In short: as §1

[12] = tested on: beggarticks (hairy beggarticks, Bidens pilosa)
In short: as §1

[13] = tested on: lambsquarters (Chenopodium album)
In short: as §1

[14] = tested on: ragweed (common ragweed, Ambrosia elatior)
In short: as §1

[15] = tested on: soybean (Glycine max)
In short: as §1

CCOc1cc(=O)n(-c2ccc(F)cc2)nc1Cc1ccnc(C(F)(F)F)c1 [Compound 25, 5-ethoxy-2-(4-fluorophenyl)-6-[[2-(trifluoromethyl)-4-pyridinyl]methyl]-3 (2H)-pyridazinone]
Plant response rating: Field Bindweed ([1]; 8 g ai/ha): 0 | Plant response rating: Field Bindweed ([1]; 16 g ai/ha): 0 | Plant response rating: Field Bindweed ([1]; 31 g ai/ha): 0 | Plant response rating: Field Bindweed ([1]; 62 g ai/ha): 5 | Plant response rating: Field Bindweed ([1]; 125 g ai/ha): 100 | Plant response rating: Pigweed, Palmer ([2]; 8 g ai/ha): 0 | Plant response rating: Pigweed, Palmer ([2]; 16 g ai/ha): 95 | Plant response rating: Pigweed, Palmer ([2]; 31 g ai/ha): 95 | Plant response rating: Pigweed, Palmer ([2]; 62 g ai/ha): 100 | Plant response rating: Pigweed, Palmer ([2]; 125 g ai/ha): 100 | Plant response rating: Sandbur ([3]; 8 g ai/ha): 0 | Plant response rating: Sandbur ([3]; 16 g ai/ha): 0 | Plant response rating: Sandbur ([3]; 31 g ai/ha): 20 | Plant response rating: Sandbur ([3]; 62 g ai/ha): 30 | Plant response rating: Sandbur ([3]; 125 g ai/ha): 60 | Plant response rating: Arrowleaf Sida ([4]; 8 g ai/ha): 0 | Plant response rating: Arrowleaf Sida ([4]; 16 g ai/ha): 5 | Plant response rating: Arrowleaf Sida ([4]; 31 g ai/ha): 5 | Plant response rating: Arrowleaf Sida ([4]; 62 g ai/ha): 35 | Plant response rating: Arrowleaf Sida ([4]; 125 g ai/ha): 40 | Plant response rating: Johnsongrass ([5]; 8 g ai/ha): 0 | Plant response rating: Johnsongrass ([5]; 16 g ai/ha): 0 | Plant response rating: Johnsongrass ([5]; 31 g ai/ha): 10 | Plant response rating: Johnsongrass ([5]; 62 g ai/ha): 35 | Plant response rating: Johnsongrass ([5]; 125 g ai/ha): 65 | Plant response rating: Nightshade ([6]; 8 g ai/ha): 5 | Plant response rating: Nightshade ([6]; 16 g ai/ha): 50 | Plant response rating: Nightshade ([6]; 31 g ai/ha): 80 | Plant response rating: Nightshade ([6]; 62 g ai/ha): 98 | Plant response rating: Nightshade ([6]; 125 g ai/ha): 100 | Plant response rating: Waterhemp ([7]; 8 g ai/ha): 35 | Plant response rating: Waterhemp ([7]; 16 g ai/ha): 50 | Plant response rating: Waterhemp ([7]; 31 g ai/ha): 100 | Plant response rating: Waterhemp ([7]; 62 g ai/ha): 100 | Plant response rating: Waterhemp ([7]; 125 g ai/ha): 100 | Plant response rating: Barnyardgrass ([8]; 8 g ai/ha): 0 | Plant response rating: Barnyardgrass ([8]; 16 g ai/ha): 5 | Plant response rating: Barnyardgrass ([8]; 31 g ai/ha): 15 | Plant response rating: Barnyardgrass ([8]; 62 g ai/ha): 35 | Plant response rating: Barnyardgrass ([8]; 125 g ai/ha): 60 | Plant response rating: Crabgrass, Brazil ([9]; 8 g ai/ha): 0 | Plant response rating: Crabgrass, Brazil ([9]; 16 g ai/ha): 75 | Plant response rating: Crabgrass, Brazil ([9]; 31 g ai/ha): 98 | Plant response rating: Crabgrass, Brazil ([9]; 62 g ai/ha): 100 | Plant response rating: Crabgrass, Brazil ([9]; 125 g ai/ha): 100 | Plant response rating: Morningglory ([10]; 8 g ai/ha): 0 | Plant response rating: Morningglory ([10]; 16 g ai/ha): 0 | Plant response rating: Morningglory ([10]; 31 g ai/ha): 5 | Plant response rating: Morningglory ([10]; 62 g ai/ha): 50 | Plant response rating: Morningglory ([10]; 125 g ai/ha): 65 | Plant response rating: Ryegrass, Italian ([11]; 8 g ai/ha): 0 | Plant response rating: Ryegrass, Italian ([11]; 16 g ai/ha): 30 | Plant response rating: Ryegrass, Italian ([11]; 31 g ai/ha): 30 | Plant response rating: Ryegrass, Italian ([11]; 62 g ai/ha): 40 | Plant response rating: Ryegrass, Italian ([11]; 125 g ai/ha): 50 | Plant response rating: Beggarticks ([12]; 8 g ai/ha): 0 | Plant response rating: Beggarticks ([12]; 16 g ai/ha): 0 | Plant response rating: Beggarticks ([12]; 31 g ai/ha): 0 | Plant response rating: Beggarticks ([12]; 62 g ai/ha): 0 | Plant response rating: Beggarticks ([12]; 125 g ai/ha): 15 | Plant response rating: Lambsquarters ([13]; 8 g ai/ha): 65 | Plant response rating: Lambsquarters ([13]; 16 g ai/ha): 98 | Plant response rating: Lambsquarters ([13]; 31 g ai/ha): 100 | Plant response rating: Lambsquarters ([13]; 62 g ai/ha): 100 | Plant response rating: Lambsquarters ([13]; 125 g ai/ha): 100 | Plant response rating: Ragweed ([14]; 8 g ai/ha): 0 | Plant response rating: Ragweed ([14]; 16 g ai/ha): 0 | Plant response rating: Ragweed ([14]; 31 g ai/ha): 0 | Plant response rating: Ragweed ([14]; 62 g ai/ha): 20 | Plant response rating: Ragweed ([14]; 125 g ai/ha): 50 | Plant response rating: Soybean ([15]; 8 g ai/ha): 0 | Plant response rating: Soybean ([15]; 16 g ai/ha): 0 | Plant response rating: Soybean ([15]; 31 g ai/ha): 0 | Plant response rating: Soybean ([15]; 62 g ai/ha): 20 | Plant response rating: Soybean ([15]; 125 g ai/ha): 30
